One assay has as its system Transglutaminase (TGase). Briefly: Keratinocyte transglutaminase (TGase) assay. To be noted: for TGase/ng DNA: 4 days, 30 μM Ca2+, control (0 μM) 16.82. In kind it is cell-based, human. The method, then: (§1) Human foreskin keratinocytes (passage 3) were seeded at 4000 cells/well in 96 well plates in Keratinocyte Growth Medium (abbreviated to KGM) containing 0.03 mM calcium and grown for 3 days at 37° C. The cells were then treated with PPAR ligands in KGM containing 0.03 mM calcium for 4 days prior to harvest. Stock solutions of PPAR ligands were dissolved in dimethylsulphoxide (DMSO) and diluted in KGM before adding to the cells. […] The harvested cells were washed 3× in phosphate buffered saline (PBS) and extracted in 1% Triton X100, 50 mM (tris[hydroxymethyl]aminomethane) (Tris) pH 8.0 plus protease inhibitors pepstatin and leupeptin (100 μl/well). The extract was assayed for DNA content using the Pico Green DNA assay (Molecular Probes, Inc.).
The remaining cell debris attached to the 96 well plate was incubated with 70 μl/well of TGase assay buffer (50 mM Tris™ pH 8.0, 5 mM DTT, 50 mM CaCl2, 150 mM NaCl, 15 μM Texas Red Cadaverine) and incubated for 16 hours at 37° C. The plates were then washed with distilled water (×2) and the fluorescence due to cross-linked Texas Red cadaverine was determined using excitation at 590 nm and emission of 645 nm.
Cultured keratinocytes were treated with cis-9-trans-11-conjugated linoleic acid (CT-CLA) for 4 days. The cells were extracted with Tris-1% Triton X100™ and the non-extractable TGase activity associated with the cells was determined using Texas Red Cadaverine (in accordance with the methods described above).

The test system of assay [1] is Human foreskin keratinocytes. The assay is described as follows: Keratinocyte proliferation analysis (DNA content per well, Pico Green). In kind it is cell-based. To be noted: for keratinocyte DNA synthesis activity, statement: 1 way ANOVA, p<0.05; for DNA: 4 days. The method, then:
as §1
Cultured keratinocytes were treated with cis-9-trans-11 conjugated linoleic acid (CT-CLA) for 4 days. The cells were extracted with Tris-1% Triton X100 and the DNA content per well was determine by the Pico Green assay in accordance with the above described procedure.

The target of the next assay is T1, human PPARα (Homo sapiens, UniProt Q07869).
T1 construct: The coding region of a human PPARα cDNA was inserted downstream of the CMV promoter; expressed in transfected cells; host or cells: Cos-7 cells, transient transfection (pcDNA3.1(−)-PPARα, pRSV-RXRα, 3xPPRE-TK-luc reporter, pRL-TK)
T1 sequence (Q07869 1-468): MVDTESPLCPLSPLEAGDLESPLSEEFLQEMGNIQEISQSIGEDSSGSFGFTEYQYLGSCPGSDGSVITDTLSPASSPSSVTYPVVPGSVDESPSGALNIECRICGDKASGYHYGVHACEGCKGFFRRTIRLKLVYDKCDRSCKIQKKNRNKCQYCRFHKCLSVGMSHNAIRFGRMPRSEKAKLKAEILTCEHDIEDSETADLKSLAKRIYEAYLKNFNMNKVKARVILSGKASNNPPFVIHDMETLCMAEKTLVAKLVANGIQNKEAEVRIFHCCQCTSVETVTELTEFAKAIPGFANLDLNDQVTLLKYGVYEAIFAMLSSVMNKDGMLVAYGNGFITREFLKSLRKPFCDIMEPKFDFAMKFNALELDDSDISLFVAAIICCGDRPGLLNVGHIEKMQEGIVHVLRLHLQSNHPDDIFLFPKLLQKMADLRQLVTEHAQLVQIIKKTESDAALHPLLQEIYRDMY
T1 sequence (P19793 1-462 partner): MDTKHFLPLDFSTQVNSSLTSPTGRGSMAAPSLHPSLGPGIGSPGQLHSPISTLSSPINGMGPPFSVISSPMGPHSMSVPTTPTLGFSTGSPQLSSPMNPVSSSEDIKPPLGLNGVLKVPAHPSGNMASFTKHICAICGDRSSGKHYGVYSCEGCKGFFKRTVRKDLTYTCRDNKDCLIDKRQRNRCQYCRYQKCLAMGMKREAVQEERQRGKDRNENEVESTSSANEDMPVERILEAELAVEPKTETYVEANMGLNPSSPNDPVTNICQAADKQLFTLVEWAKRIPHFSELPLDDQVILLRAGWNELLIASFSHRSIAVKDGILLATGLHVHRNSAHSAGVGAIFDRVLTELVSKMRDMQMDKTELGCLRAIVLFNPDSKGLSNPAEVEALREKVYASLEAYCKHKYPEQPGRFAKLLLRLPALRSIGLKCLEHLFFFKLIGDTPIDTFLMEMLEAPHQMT
Briefly: PPARα reporter gene assay (firefly luciferase, transiently transfected Cos-7 cells). It counts as cell-based. To be noted: for Result (superior activity class achieved): class reached; for Pass at (lowest tested administration level at which the test material passed): pass = activation greater than oleic acid at 100 μM, commonly >1.57 times vehicle control, 24 h treatment. The source says:
One convenient reporter assay for determining whether a fatty acid material is PPARα activating is based upon the firefly luciferase gene.
Fatty acids were screened to identify PPAR activating fatty acids using a reporter assay.
This assay relied on ligands binding to and activating the PPARα protein, which, in turn, activated genes under the control of PPAR response elements (PPRE). In the assay, the firefly luciferase gene was cloned behind a promoter containing 3 copies of the fatty acid binding protein PPRE.
The assay was performed by transient transfection of Cos-7 cells with a mixture of four DNA plasmids. These were:
1) PPAR reporter gene construct (Modified pNF-KB-luc reporter vector (Firefly luciferase reporter vector commercially available form Clontech (NF-kB response element, TK minimal promoter, luc^+, f1 origin, pUC origin, amp^r)). A tandem repeat of 3 PPAR response elements (PPREs) corresponding to the PPRE found in the fatty acid binding protein promoter was inserted upstream of the minimal TK promoter to replace the NF-κB response element);
2) 2) Over-expressing PPARα construct (Modified pcDNA3.1(−) vector (A mammalian expression vector commercially available from Invitrogen (CMV promoter, f1 origin, SV40 origin, ColE1 origin, neo^r, amp^r)). The coding region of a human PPARα cDNA was inserted downstream of the CMV promoter of pcDNA3.1 (−)). […] The coding region of a human RXRα cDNA has been inserted downstream of the RSV promoter. (Gift of V. K. K. Chatterjee, Addenbrooke's Hospital, Cambridge)) 4) Control luciferase construct (pRL-TK Renilla luciferase reporter vector commercially available from Promega (HSV-TK promoter, T7 promoter, Rluc^+, ori, amp^r)). For the transfection, DNA was made up as a mix of PPAR reporter gene: PPARα: RXRα: control in the ratio 40:4:3:3.
Cos-7 cells were grown in Dulbecco's modified Eagle's Medium, also herein referred to as DMEM with 10% foetal calf serum, herein also referred to as FCS at 37° C., 5% CO2 to 80% confluency. Cells were then plated out in 24 well plates at 50,000 cells per well and incubated overnight in DMEM with 10% FCS at 37° C., 5% CO2. Cells were then transfected using the LipofectAMINE reagent (GibcoBRL). For each well 0.4 μg of DNA mix (in 25 μl of DMEM) was incubated with 1 μl LipofectAMINE (in 25 μl of DMEM) for 45 minutes. The mixture was then made up to 250 μl per well and added to the cells, which had been washed with 1 ml of DMEM. Cells were then incubated for 5 hours at 37° C., 5% CO2 and 250 μl DMEM with 10% SBCS (charcoal stripped bovine calf serum) added. Cells were incubated for 18 hours at 37° C., 5% CO2 before being treated with the appropriate compound/extract. Test compounds were made up as 1000× stocks (in DMSO or ethanol as appropriate) and diluted into DMEM with 10% SBCS (500 μl per well) immediately before being added to cells. Each treatment was performed in triplicate. The transfection mix was removed from the cells and replaced with the treatment mix, and incubated for 24 hours at 37° C., 5% CO2. Cells were washed with 1 ml of PBS (without calcium or magnesium) and then lysed with 100 μl per well of 1× Passive Lysis Buffer (as supplied with Promega Dual Luciferase assay kit). Lysis was allowed to continue for 15 minutes and then the lysate was assayed for Firefly and Renilla luciferase activity using the Promega Dual Luciferase assay kit. For the assay, 20 μl of lysate was taken and assayed as described in the kit instructions using a MLX microtiter™ plate luminometer (Dynex).
Firefly luciferase activity (PPAR driven) was normalised against the Renilla luciferase value for that well and the mean calculated for the three wells treated with the same agent. Activity was then expressed as fold activation over the vehicle (DMSO or ethanol) control values for that particular plate.

The test system of assay [2] is Human foreskin keratinocytes. The assay is described as follows: Keratinocyte cornified envelope assay. The following applies: for Cornified envelopes assay: 4 days, control (0 μM) 17996. In kind it is cell-based. The method, then:
as §1
After Tris-triton extraction for TGase assay, the cells were extracted with 100 μl/well of 2% SDS, 20 mM DTT for 16 hours at 60° C. Once extracted the SDS suspension from each well was individually filtered through polyviylidenefluoride (PVDF) membrane (Immobilon-P™ Transfer Membrane, Millipore) which had been pre-blocked in Tris Buffered Saline (TBS) containing 0.5% (v/v) Tween 20, 0.5% using a Dot Blot TM Apparatus (Bio-Rad). Each sample was washed several times with TBS/Tween buffer before the membrane was removed from the apparatus, rinsed in distilled water and silver stained using silver stain kit (Bio-Rad). The stained dot blot membrane was scanned and analysed using Phoretix Array™ software.
Cultured keratinocytes were treated with pinoleic acid for 4 days. The cells were extracted with 2% SDS, 20 mM DTT and the cornified envelopes were quantified, after filtration using a PDVF membrane, by silver staining, as described above.

In the case of `CCCCCC/C=C/C=C\CCCCCCCC(=O)O` [CLA (c9, t11), cis-9-trans-11 conjugated linoleic acid], the “TGase/ng DNA” value in the assay with Transglutaminase (TGase) (0.1 μM) came out at 18.30; in the assay on Transglutaminase (TGase) (1 μM), 18.46; in the assay with Transglutaminase (TGase) (10 μM), 28.07. In the assay on Transglutaminase (TGase) (1 way ANOVA, p<0.05), the “keratinocyte TGase activity, statement” value was “significantly increase”. Also, the “keratinocyte DNA synthesis activity, statement” value in assay [1] (Example 10: 10 μM) is “significantly reduce”. The DNA amounted to 81.83 ng/well in assay [1] (Table 11: 0.1 μM, control (0 μM) 92.17); 81.33 ng/well in assay [1] (Table 11: 1 μM, control (0 μM) 92.17); 59.50 ng/well in assay [1] (Table 11: 10 μM, control (0 μM) 92.17). At human PPARα, the “Result at (lowest administration level at which super or MS activity was achieved)” value is 25 μm. Also, the “Result (superior activity class achieved)” value on human PPARα was “super (superior activity [super] (50% higher—at least 2.25 times PPARα activation))”. Further, the “Pass at (lowest tested administration level at which the test material passed)” value at human PPARα came out at 10 μm.

With hexadecatrienoic acid, the “cornified envelope formation, statement” value in assay [2] (Example 9: 1-10 μM, 1 way ANOVA, p<0.05) was “significantly increase”. Besides, the results for the Cornified envelopes assay in assay [2] (Table 10: 0.1 μM), in assay [2] (Table 10: 1 μM) and in assay [2] (Table 10: 10 μM) were 17617 arb. Units, 36017 arb. Units and 40997 arb. Units, respectively. Moreover, the “keratinocyte DNA synthesis activity, statement” value in assay [1] (Example 14: 0.1-10 μM) was “significantly reduce”. Further, the DNA amounted to 0.98 ng/well in assay [1] (Table 15: 0.1 μM, control (0 μM) 1.66); 1.27 ng/well in assay [1] (Table 15: 1 μM, control (0 μM) 1.66); 1.13 ng/well in assay [1] (Table 15: 10 μM, control (0 μM) 1.66). Also, the “Result at (lowest administration level at which super or MS activity was achieved)” value on human PPARα came out at 10 μm. Further, at human PPARα, the “Result (superior activity class achieved)” value was “super (superior activity [super] (50% higher—at least 2.25 times PPARα activation))”. In addition, the “Pass at (lowest tested administration level at which the test material passed)” value at human PPARα was 10 μm.

(Values after US6713051B2, “Antiperspirant or deodorant compositions” (Unilever Home & Personal Care USA division of Conopco, Inc., priority 2001, dated 2004).)
